These results are taken from patent publication US20240316051A1, “A PHARMACEUTICAL COMBINATION AND USE THEREOF” (Ascentage Pharma (Suzhou) Co., Ltd., priority 2021, published 2024).

In one assay the target is T1, EED (1-441)-His protein (Homo sapiens, UniProt O75530).
T1 construct: 20 nM EED (1-441)-His protein
The assay is described as follows: EED-H3K27Me3 peptide competition binding assay by AlphaScreen. The following applies: Table 4A, read-out: Alpha screen. The gist of the method: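 EED(1-441)-His was preincubated 15 min with compound, then biotin-H3K27Me3(19-33) peptide added for 30 min; both were added as 20 nM solutions in 25 mM HEPES pH 8, 0.02% Tween-20, 0.5% BSA. Ni-chelate acceptor and streptavidin donor beads (10 μg/ml each final) were added for 1 h in the dark at RT. Signal read at 615 nm (680 nm excitation), normalised to controls and fitted to dose-response for IC50.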
Background: Alpha assays give light when donor and acceptor beads are brought close together.

The subject of a further assay is Pfeiffer Cell line. The assay is described as follows: Cell proliferation, Pfeiffer cell line. In kind it is cell-based. The following applies: Homo sapiens, anti-proliferative IC50, Table 4A. On the procedure:
(§1) Analysis of Cell Proliferation:
(§2) To assess the effect of PRC2 inhibition on cell growth, cells were seeded in 96-well cell culture plates at a density of 2 000-3 000 cells/well in 200 μL of culture medium, and treated with serially diluted compounds for 7 days at 37° C. in an atmosphere of 5% CO2. Cell growth was evaluated by a […] WST-8 assay (Dojindo Molecular Technologies) using a Tecan Infinite M1000 multimode microplate reader (Tecan, Morrisville, NC). The WST-8 reagent was added to the plate, incubated for 1-4 h, and read at 450 nm. The readings were normalized to the DMSO-treated cells, and the IC50 was calculated by nonlinear regression analysis using GraphPad Prism 6 software

Assay [1] has as its system human B cell lymphoma cell KARPAS422. Put plainly: Cell proliferation (WST-8), KARPAS422, 7 days. It is filed as cell-based. The settings on record: KARPAS-422, 168 h, WST-8, Table 4A, read-out: Karpas Cell line. On the procedure: as §1, §2
In general terms: Formazan colour is commonly taken as a measure of viable cells.

Assay [2] concerns NCI-H226 (BAP1mut, CDKN2Adel, FGFR high) xenograft. The assay is described as follows: NCI-H226 xenograft model (Examples 18-19). In kind it is in vivo, mice. The following applies: Compound 2-5 50 mg/kg, orally, once per day, 35 days. On the procedure:
(§3) A subcutaneous xenograft tumor model of human tumor immunodeficient mice was established by cell inoculation: tumor cells in logarithmic growth phase were collected, counted, resuspended in 1×PBS, and the cell suspension concentration was adjusted to 2.5-5×10^7/mL. The tumor cells were inoculated subcutaneously in the right side of immunodeficient mice with a 1 ml syringe ([…]), 5-10×10^6/0.2 mL/mouse. All animal experiments were strictly in accordance with the specifications for the use and management of experimental animals in GenePharma Co., Ltd. and Suzhou Ascentage Pharma Co., Ltd. The calculation of relevant parameters refers to the Chinese NMPA “Guidelines for Non-Clinical Research Techniques of Cytotoxic Anti-tumor Drugs”.
Animal body weight and tumor size were measured twice weekly during the experiment. The state of the animal and the presence or absence of death were observed every day. The growth of tumor and the effects of treatment on normal behavior of animals were monitored routinely, specifically involving experimental animal activity, feeding and drinking, weight gain or loss, eyes, clothing hair and other abnormalities. The deaths and clinical symptoms observed during the experiment were recorded in the raw data. […] The plasma and tumor samples were frozen at −80° C. for ready-to-use.
(§4) Tumor volume (TV) is calculated as: TV=a×b^2/2, wherein a and b represent the length and width of the tumor to be measured, respectively.
The relative tumor volume (RTV) is calculated as: RTV=Vt/V1, wherein V1 is the tumor volume at the start of grouping and administration, and Vt is the tumor volume measured on the t day after administration. […]
Use of mRECIST (Gao et al., 2015) measured tumor responses included stable disease (SD), partial tumor regression (PR), and complete regression (CR), determined by comparing tumor volume change at day t to its baseline: tumor volume change (%)=(Vt−V1)/V1. […] For each time t, the average of tumor volume changes from t=1 to t was also calculated. […] Body weight of animals were monitored simultaneously. […]

Assay [3] relates to BAP1 mut mesothelioma PDX model. Put plainly: BAP1 mut mesothelioma PDX model (Examples 15-17). It is filed as in vivo, mice. The following applies: Compound 2-5 50 mg/kg, orally, once per day, 28 days. On the procedure:
as §3
Animal body weight and tumor size were measured twice weekly during the experiment. The state of the animal and the presence or absence of death were observed every day. The growth of tumor and the effects of treatment on normal behavior of animals were monitored routinely, specifically involving experimental animal activity, feeding and drinking, weight gain or loss, eyes, clothing hair and other abnormalities. The deaths and clinical symptoms observed during the experiment were recorded in the raw data. All operations for administration and measurement of mouse body weight and tumor volume were performed in a clean bench. According to the requirements of the experimental protocol, after the end of the last administration, plasma and tumor tissues were collected, weighed and photographed. The plasma and tumor samples were frozen at −80° C. for ready-to-use.
as §4
The relative tumor volume (RTV) is calculated as: RTV=Vt/V1, wherein V1 is the tumor volume at the start of grouping and administration, and Vt is the tumor volume measured on the t day after administration.
The evaluation index of anti-tumor activity is the relative tumor proliferation rate T/C (%), and the calculation formula thereof is: relative tumor proliferation rate T/C (%)=(TRTV/CRTV)×100%, TRTV is the RTV of treatment group, CRTV is the RTV of solvent control group.
A dose of drug is considered to be severely toxic if the body weight of mouse is reduced by more than 20% or the number of drug-related deaths exceeds 20%.
According to the description by Clarke R., Issues in experimental design and endpoint analysis in the study of experimental cytotoxic agents in vivo in breast cancer and other models [J]. Breast Cancer Research & Treatment, 1997, 46(2-3): 255-278, synergy analysis was evaluated using the following formula: synergy factor=((A/C)×(B/C))/(AB/C); A=RTV value of drug A alone group; B=RTV value of drug B alone group; C=RTV value of the solvent control group, and AB=RTV value of the A and B combination group.
In this experiment, a BAP1 mut mesothelioma PDX model (Lide Biotech) was established to evaluate the anti-tumor effect of Compound 73. The dosing regimen was as follows: • Compound 73: 50 mg/kg, orally, once per day, for a total of 28 days; • Compound 73: 100 mg/kg, orally, once per day, for a total of 28 days;
In this experiment, a BAP1 mut mesothelioma PDX model (Lide Biotech) was established to evaluate the anti-tumor effect of Compound 73 in combination with Compound A-1. […]

T1 sequence (O75530 whole entry): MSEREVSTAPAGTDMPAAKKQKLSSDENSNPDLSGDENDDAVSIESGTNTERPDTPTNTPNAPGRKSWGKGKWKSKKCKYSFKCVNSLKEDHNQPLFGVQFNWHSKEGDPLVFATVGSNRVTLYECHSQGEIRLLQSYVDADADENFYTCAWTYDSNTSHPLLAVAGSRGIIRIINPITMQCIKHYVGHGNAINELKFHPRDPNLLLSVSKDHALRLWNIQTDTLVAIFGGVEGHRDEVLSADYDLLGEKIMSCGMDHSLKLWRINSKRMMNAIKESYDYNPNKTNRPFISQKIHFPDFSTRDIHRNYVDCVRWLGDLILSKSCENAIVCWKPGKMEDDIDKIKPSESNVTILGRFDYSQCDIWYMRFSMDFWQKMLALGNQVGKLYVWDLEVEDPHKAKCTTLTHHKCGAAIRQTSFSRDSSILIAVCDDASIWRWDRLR

With `O=C1c2ncn3c(NCc4c(F)ccc5c4CCO5)ncc(c23)-c2sccc2CN1C1CC1` [Compound 87, 4-cyclopropyl-11-(((5-fluoro-2,3-dihydrobenzofuran-4-yl)methyl)amino)-4,5-dihydro-3H-8-thia-2,4, 10,11a-tetraazacyclopenta[4,5]cycloocta[1,2,3-cd] inden-3-one], the figures for the IC50 (on EED (1-441)-His protein; in the assay with Pfeiffer Cell line; in assay [1]) were 11.1 nM, 0.018 nM and 8.67 nM, respectively.
As for `Cc1cc(Nc2ncc(Cl)c(Nc3ccccc3S(=O)(=O)C(C)C)n2)c(OC(C)C)cc1C1=CCN(C2CCOCC2)CC1` [Compound 2-5, 5-chloro-N^2-(2-isopropoxy-5-methyl-4-(1-(tetrahydro-2H-pyran-4-yl)-1,2,3,6-tetrahydropyridin-4-yl)phenyl)-N^4-(2-(isopropylsulfonyl)phenyl)pyrimidine-2,4-diamine], the “inhibition of tumor growth (in words)” value in assay [2] is recorded as “almost not effective in inhibiting tumor growth”; in assay [3], “not effective in inhibiting tumor growth”.
